Data on one substance can be found in patent US20210108199A1, “Treatment for aggressive cancers by targeting C9ORF72” (The Trustees of Columbia University in the City of New York, priority 2017, published 2021).

Holding throughout (assay type): cell-based
The test system of data set [1] is U87 cells. The data set can be described thus: TUNEL assay for DNA breaks. As to conditions: vs control. On the procedure:
Cells were treated with control and C9 siRNA for three days. On day three, cells were collected for TUNEL assay using the FlowTACS kit (TREVIGEN™, 4817-60-K) according to manufacturer's instructions to detect DNA fragmentation. For a positive control, DNA damage was induced using doxorubicin. Data were collected on a FACSCalibur™ flow cytometer (Becton Dickinson™) and data analysis performed on FlowJo™.
ROS can cause oxidative DNA damage. Since elevated ROS levels were observed under C9 KD conditions, it may cause increase in DNA damage. To test this hypothesis, a TUNEL assay was used to measure DNA breaks. […] In addition to C9KD, U87 cells were treated with a known chemotherapeutic DNA damage-inducing drug to serve as a positive control for DNA damage (see FIG. 23). FIG. 23 presents data for the TUNEL assay of U87 cells treated as described for FIG. 21 and for positive DNA-damage control with 0.5 μM doxorubicin (DOX). FIG. 23A presents data for the percentage of cells with DNA fragmentation (shown by DNA damage) comparing control (siCtrl) C9 KD (siC9; SEQ ID NO:631) and DOX-treated cells as measured by FACS analysis. […] FIG. 24 is a set of graphs showing data for cells treated as described for FIG. 23, with the exception of using a different C9 siRNA, indicated as siC9 #2 (SEQ ID NO:633).

In data set [2] the test system is p53. The data set can be described thus: Western blot of phospho-p53, p53 and p21. As to conditions: U87 cells. On the procedure: (§1) For Western blot analysis, cells were lysed with lysis buffer (20 mM sodium phosphate (pH 7.0), 250 mM NaCl, 30 mM sodium pyrophosphate, 0.1% Nonidet™ P-40, 5 mM EDTA, 10 mM NaF, 0.1 mM Na3VO4, and 1 mM PMSF) supplemented with complete protease inhibitors (Roche™) and homogenized by passage through a 28 gauge needle. Protein concentration was measured with a Bio-Rad™ protein assay dye reagent and results were read using a spectrophotometer (BiophotometerPlus™ by Eppendorf™). Protein extracts were resolved by SDS PAGE on gradient (Thermo Fisher™) or 12% gels. Proteins were then electrotransferred at 350 mA for 80 minutes onto a PVDF membrane (Immobilon-P PVDF). Membranes were blocked with PBST with 5% milk and 1% BSA for 30 minutes. Quantitation of blots was performed Image Studio Lite software (LI-COR Biosciences™).
One of the responses to DNA damage is activation of p53 by ATM. Upon DNA damage, ATM activation leads to p53 phosphorylation, which activates p53 as a transcription factor. Since increased DNA damage was observed upon C9 KD, whether p53 is activated in C9 depleted cells was investigated. First, total p53 levels were measured in U87 cells treated with control and two independent siRNAs against C9. […] Then, the levels of phosphorylated (active) p53 (at s15) was measured. Phosphorylation of s15 on p53 was increased in both C9 siRNA samples.
On the technique in general: In western blotting, separated proteins are transferred to a membrane and probed.

For data set [3], the system named is p53 null U87 cells. The data set can be described thus: Vacuoles in p53 null U87 clones. The conditions noted are these: p53 null U87 clones KO #4 and KO #9. On the procedure:
To generate p53 knockout clones, U87 cells (7×10^5) were transfected with 2 μg p53 CRISPR/Cas9 KO plasmid (Santa Cruz Biotech™, sc-416469) using Lipofectamine 2000 (ThermoFisher™). Two days later, cells were treated with Nutlin-3 (10 μM) for 12 days to inhibit proliferation of cells with wild type p53, thereby enriching for p53 knockout cells. Single-cell clones were selected via limiting dilution, and p53 knockout clones were confirmed by western blotting using p53 antibody (FL-393).
C9 then was knocked down with two independent siRNAs in the two U87 p53 null clones. […] See FIG. 33A, which provides phase contrast images (40×) of two clones (KO #4 and KO #9) of p53 null U87 cells generated by CRISPR, treated with control (siCtrl) and C9 (siC9; SEQ ID NO:631) siRNA, and FIG. 33B, a WB showing C9 levels after C9 KD in KO #4 cells.
FIG. 34 is a graph presenting quantitation of data for about 90 cells, indicating the number of vacuoles per cell. Statistical significance was assessed by unpaired t-test: NS P>0.05, *P≤0.05, **P≤0.01, ***P≤0.001 ****P≤0.0001. FIG. 35 is a WB showing PARP1, phospho-ERK and γ-H2AX levels upon C9 KD (siC9; SEQ ID NO:631) in U87 KO #4 cell line.

In data set [4] the test system is p53 null U87 cells. The data set can be described thus: Western blot of PARP1, p-ERK, γ-H2AX in p53 null U87 cells. On the procedure: as §1
In addition, C9 was knocked down with two independent siRNAs in p53 null U87 cells to investigate the role of p53 in the viability of the cells.
See FIG. 37, a WB of p53 null U87 cells (KO #4) treated with control and C9 siRNA and showing levels of PARP1, p-ERK, γ-H2AX. Actin was used as a loading control.

Data set [5] has as its system HCC1937 cells (with BRCA1 mutation). In words: CellTiter-Glo viability assay in HCC1937 cells. On the procedure: […] (HCC1937, with BRCA1 mutation) cells were harvested using trypsin (0.5 ml per well) and the media was saved from each well. The saved media were resuspended with the trypsinised cells and 2-3 aliquots (0.05 ml each) of this suspension was transferred to 96-well plates. HCC cells were subjected to S1 and S2 as described above. A CellTiter-Glo™ Luminescent Viability assay was used to measure the viability of these aliquots by adding 0.15 mL of the CTG-media mixture to each well. The rest of the culture was used to extract protein. Viability of cells was measured using the 1:1 dilution of the CellTiter-Glo™ Luminescent reagent (Promega™) with media, which was read on a Victor 5™ plate reader after 10 minutes of shaking at room temperature. The intensity of luminescence was normalized to that of the DMSO control.
Without being bound to any particular theory, it is believed that this is because PARP1 is inhibited which is known to cause death in BRCA1 deficient breast cancer cell lines.
In general terms: In ATP-based viability assays light output follows the ATP content of the culture.

With “siC9: siRNA targeting C9 mRNA: UUAAUGAAACAAUAAUCACUC (SEQ ID NO:631; sense) and GUGAUUAUUGUUUCAUUAAUC (SEQ ID NO:632; antisense) (listed as RNA, chemistry not given here)”, the “DNA breaks (TUNEL)” value in data set [1] was “increase in DNA breaks”. For the same substance, in data set [2], the p21 protein levels result was “increased p21 protein levels”, the “phosphorylation of s15 on p53” value was “increased” and the “total p53 levels” value is on record as “elevates p53 levels”. The vacuolization entry in data set [3] was “no significant increase in vacuolization”. Moreover, the PARP1 protein entry in data set [4] (p53 KO U87 cells) is on record as “PARP downregulation occurred without the presence of p53”. Further, the “ERK and γ-H2AX phosphorylation” value in data set [4] (p53 null U87 cells (KO #4)) is “increased ERK and γ-H2AX phosphorylation”. The cell viability result in data set [5] is on record as “decrease in their viability”.
